Results as given in PMC3908613 (Bioscience Reports, 2014).

Legend:
BMDC [1] = experiment: Cytokine production by LPS-stimulated BMDC (ELISA); type: cell-based, C57BL/6 mice; settings: LPS 50 ng/ml, 18 h; for production of TNFα, IL6 and IL10: in the presence of both PD184352 (2 μM) and BIRB0796 (0.1 μM)
Method: DCs were generated from the bone marrow or the spleen of C57BL/6 mice as previously described. Briefly, bone marrow cells were cultured for 7 days at 37°C, 5% (v/v) CO2 in complete RPMI medium supplemented with 10 ng/ml recombinant granulocyte-macrophage colony-stimulating factor (GM-CSF; Peprotech). Spleen cells were cultured for 14 days at 37°C, 5% CO2 in complete RPMI containing 10 ng/ml GM-CSF and 1 ng/ml TGFβ (transforming growth factor-β; R&D Systems). NIH3T3 cells (European Cell Culture Collection) were cultured in DMEM (Dulbecco's modified Eagle's medium) supplemented with glutamine, penicillin, streptomycin and 10% (v/v) calf serum (Invitrogen). […] The amounts of TNFα (tumour necrosis factor α), IL6 (interleukin 6) and IL10 in the supernatant were measured using ELISA kits specific for each cytokine (TNFα, IL6; Peprotech, IL10; R&D Systems).

DC = experiment: Actin cytoskeleton organisation in DC (confocal microscopy); type: cell-based, C57BL/6 mice; settings: 4 μM D1870 or 2 μM BIX, 1h30 at 37°C
Method: 2 μMBIXfor1h30at37◦ C. Cells were ﬁxed in 4 % (v/v) paraformalde-hyde for 15 min, permeabilized with 0.1 % Triton for 5 min and stained with phalloidin-Alexa 555 (Invitrogen) and anti-vinculin antibody (Sigma) followed by goat anti-mouse Alexa 488 antibody (invitrogen). Cells were analysed on a Zeiss700 confocal microscope. V inculin (green) and phal-loidin (red). Error bar 10 μm. Images are representative of three inde- […]
© 2014 The Author(s) This is an Open Access ar ticle distributed under the terms of the Creative Commons Attribution Licence (CC-BY) (http://creativecommons.org/licenses/by/3.0/)c which permits unrestricted use, distribution and reproduction in any medium, provided the original work is properly cited.
(1 picture or pasted object on this page, not shown here)

p38 = experiment: Desthiobiotin-ATP probe capture on streptavidin beads, Western blot; type: binding, C57BL/6 mice; settings: 10 μM inhibitor, DC lysate
Method: (§1) SDC were cultured for at least 14 days in RPMI (without arginine and lysine, custom-made by Biosera) containing 10% dialysed FCS (Hyclone) supplemented with 84 mg/l of L-arginine (Sigma) and 40 mg/l L-lysine (Sigma) for the 'light' medium or 84 mg/l of […] or ^13C10 and 40 mg/l […] (Cambridge Isotope Laboratory) for the 'heavy' medium. Equal numbers (2×10^7) of 'light' or 'heavy' labelled SDCs were incubated in RPMI containing 0.5% FCS for 3 h in 15 cm dishes. The cells were lysed in the lysis buffer provided in the kit (Pierce). […] Labelling with the desthiobiotin ATP probe, and precipitation with streptavidin beads were performed according to the manufacturer's instructions (Pierce kinase enrichment kit or ActivXTM).

Erk1/2 = molecular target: T1, Erk1/2 (Mus musculus, UniProt P63085); experiment: as above; type: binding, C57BL/6 mice; settings: 10 μM inhibitor, DC lysate
T1 construct: recovered on streptavidin beads following desthiobiotin-ATP labelling of DC lysates including Rsk2, Erk1/2 and p38; endogenous in cells; host or cells: mouse spleen-derived dendritic cells (SDC), lysate
T1 sequence (P63085 2-358): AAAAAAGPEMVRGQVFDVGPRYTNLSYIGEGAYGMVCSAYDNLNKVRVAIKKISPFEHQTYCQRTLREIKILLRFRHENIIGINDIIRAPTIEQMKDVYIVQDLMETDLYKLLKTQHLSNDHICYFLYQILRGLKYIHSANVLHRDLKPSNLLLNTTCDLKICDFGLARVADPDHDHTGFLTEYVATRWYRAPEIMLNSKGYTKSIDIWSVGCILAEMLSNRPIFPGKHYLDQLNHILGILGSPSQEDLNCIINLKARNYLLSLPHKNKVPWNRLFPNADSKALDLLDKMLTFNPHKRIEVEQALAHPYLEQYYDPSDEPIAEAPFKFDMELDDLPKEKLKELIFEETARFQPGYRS
Method: as §1

[2] = test system: panel of more than 200 kinases; set-up: method as in PMID 22056746; settings: cited from earlier work
BMDC [3] = experiment: Immunoblot of phosphorylated signalling proteins in stimulated BMDC; type: cell-based, C57BL/6 mice; settings: 30 min
Method: BMDC (1.5×10^6 cells) were incubated in 6-well plates in RPMI supplemented with 0.3% FCS for 5 h at 37°C. […] NIH3T3 cells (2×10^4) were plated in 6-well plates for 48 h at 37°C. The cells were deprived of serum for 8 h in DMEM supplemented with 2 mg/ml BSA (Sigma) and then stimulated with 100 ng/ml EGF (epidermal growth factor; Peprotech) for 5 min at 37°C.
Cells were washed in cold PBS, lysed on ice for 10 min in lysis buffer (1% Triton X-100 containing 50 mM Tris–HCl (pH 7.5), 150 mM NaCl, 1 mM EGTA, 1 mM EDTA, 10 mM NaF, 1 mM sodium orthovanadate and 5 mM sodium pyrophosphate and protease inhibitors (Roche)) and centrifuged for 10 min at 20000 g at 4°C.
BMDC (5×10^6 cells) were stimulated as described above. Lysates were pre-cleared with protein G Sepharose beads (Roche) for 30 min at 4°C. Paxillin was immunoprecipitated with 2 μg of anti-paxillin (Millipore) or with anti-IgG antibodies (Santa Cruz Biotechnology) for 1 h at 4°C and then incubated with 15 μl protein G Sepharose beads for 1 h at 4°C. Beads were washed four times with lysis buffer and paxillin was eluted with NuPage sample buffer (Invitrogen). The immunoprecipitated proteins were separated by electrophoresis on a 10% (w/v) NuPage gel and transferred onto a nitrocellulose membrane. The membrane was probed with anti-phospho Ser250-paxilin (kind gift of Luc Sabourin, McMaster University, Canada) or anti-paxillin antibodies.

RSK = test system: RSK; set-up: method as in PMID 22056746; settings: read-out: in vitro IC50 RSK; cited from earlier work
BMDC [4] = experiment: FITC-dextran uptake (macropinocytosis) by BMDC; type: cell-based, C57BL/6 mice; settings: LPS 50 ng/ml, FITC-dextran 1 mg/ml, increasing concentrations
Method: DCs were generated from the bone marrow or the spleen of C57BL/6 mice as previously described. Briefly, bone marrow cells were cultured for 7 days at 37°C, 5% (v/v) CO2 in complete RPMI medium supplemented with 10 ng/ml recombinant granulocyte–macrophage colony-stimulating factor (GM-CSF; Peprotech). Spleen cells were cultured for 14 days at 37°C, 5% CO2 in complete RPMI containing 10 ng/ml GM-CSF and 1 ng/ml TGFβ (transforming growth factor-β; R&D Systems). NIH3T3 cells (European Cell Culture Collection) were cultured in DMEM (Dulbecco's modified Eagle's medium) supplemented with glutamine, penicillin, streptomycin and 10% (v/v) calf serum (Invitrogen).
FITC-dextran uptake was measured as described. […] In some experiments, cells were pre-treated with 1 μM Akt-i (Merck) for 30 min. Cells were left unstimulated or were stimulated with 50 ng/ml LPS for 20 min at 37°C followed by the addition of 1 mg/ml FITC dextran (Invitrogen) for 10 min at 37°C. Cells were washed four times at 4°C in PBS supplemented with 2% (v/v) FCS (foetal calf serum) and then stained with APC (allophycocyanin)-labelled anti-CD11c antibody (BD biosciences). FITC dextran uptake was measured on an FACS Calibur (BD biosciences).

PLK1 = molecular target: T2, PLK1 (Mus musculus, UniProt Q07832); experiment: Desthiobiotin-ATP probe capture on streptavidin beads, Western blot; type: binding, C57BL/6 mice; settings: 10 μM inhibitor, DC lysate
T2 construct: endogenous in cells; host or cells: mouse spleen-derived dendritic cells (SDC), lysate
T2 sequence (Q07832 whole entry): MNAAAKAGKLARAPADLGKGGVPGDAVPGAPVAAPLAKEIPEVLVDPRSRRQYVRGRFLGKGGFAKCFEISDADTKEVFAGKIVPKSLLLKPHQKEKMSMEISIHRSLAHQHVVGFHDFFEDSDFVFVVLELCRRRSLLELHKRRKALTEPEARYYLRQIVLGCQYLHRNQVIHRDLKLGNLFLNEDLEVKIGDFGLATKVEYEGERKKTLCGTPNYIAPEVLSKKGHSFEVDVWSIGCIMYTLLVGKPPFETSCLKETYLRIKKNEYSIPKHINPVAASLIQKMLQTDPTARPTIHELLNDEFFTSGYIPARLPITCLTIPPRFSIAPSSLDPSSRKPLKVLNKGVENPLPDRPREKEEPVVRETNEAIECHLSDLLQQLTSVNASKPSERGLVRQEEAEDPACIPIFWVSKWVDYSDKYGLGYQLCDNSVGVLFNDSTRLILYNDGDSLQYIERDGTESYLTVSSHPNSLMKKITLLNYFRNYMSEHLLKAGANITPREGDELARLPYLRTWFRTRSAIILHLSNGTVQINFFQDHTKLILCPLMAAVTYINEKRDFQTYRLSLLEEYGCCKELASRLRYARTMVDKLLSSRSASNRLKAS
Method: SDC were cultured for at least 14 days in RPMI (without arginine and lysine, custom-made by Biosera) containing 10% dialysed FCS (Hyclone) supplemented with 84 mg/l of L-arginine (Sigma) and 40 mg/l L-lysine (Sigma) for the ‘light’ medium or 84 mg/l of L-arginine ^13C6 or ^13C10 and 40 mg/l L-lysine ^13C6 (Cambridge Isotope Laboratory) for the ‘heavy’ medium. Equal numbers (2×10^7) of ‘light’ or ‘heavy’ labelled SDCs were incubated in RPMI containing 0.5% FCS for 3 h in 15 cm dishes. The cells were lysed in the lysis buffer provided in the kit (Pierce). […] Labelling with the desthiobiotin ATP probe, and precipitation with streptavidin beads were performed according to the manufacturer's instructions (Pierce kinase enrichment kit or ActivX™). Equal amount of streptavidin precipitates were separated by electrophoresis as described above and probed with antibodies against Rsk2, Lok (Bethyl), Slk (Bethyl), PLK1 (Calbiochem), p38, Erk2 and Mst1 (from Cell Signaling).

[5] = increasing concentrations of inhibitor

Compound	production of TNFα, IL6 and IL10 (BMDC [1])	morphological changes in resting DC (cell spreading, focal adhesion, loss of podosomes) (DC)	IL6 secretion (BMDC [1]; [5])	IL10 secretion (BMDC [1]; [5])	TNFα production (BMDC [1]; [5])	capture of p38 on streptavidin beads (p38)	capture of Erk1/2 on streptavidin beads (Erk1/2)	Higher levels of BIX at which a few other kinases were affected [2]	Erk1/2, p38 or JNK1/2 phosphorylation (BMDC [3]; LPS 50 ng/ml)	GSK3α/β phosphorylation (BMDC [3]; LPS 50 ng/ml)	PKB phosphorylation at Ser473 and Thr308 (BMDC [3]; LPS 50 ng/ml)	Phosphorylation of MSK1 and MK2 (BMDC [3]; LPS 50 ng/ml)	phosphorylation of IκBα (BMDC [3]; LPS 50 ng/ml)	phosphorylation of paxillin on Ser250 (BMDC [3]; LPS, paxillin immunoprecipitated)	IC50 (RSK) [nM]	Block of TLR stimulated macropinocytosis (BMDC [4])	Recovery of PLK1 on streptavidin beads (PLK1)
Cc1ccc(-n2nc(C(C)(C)C)cc2NC(=O)Nc2ccc(OCCN3CCOCC3)c3ccccc23)cc1 [BIRB0796]	blocked	–	–	–	–	–	–	–	–	–	–	–	–	–	–	–	–
C[C@@H]1CCNC(=O)c2cc3ccc(C(=O)Nc4nc5ccccc5n4CCCN(C)C)cc3n21 [BIX, BIX02565]	–	not observed	only partially blocked	only partially blocked	partially blocked	not Erk1/2 or p38, was blocked	not Erk1/2 or p38, was blocked	~ 20 fold	Neither inhibitor had any effect	blocked	increased	not affected	neither D1870 nor BIX affected	little effect	1 to 2	~ 20%	not affected
O=C(NOCC1CC1)c1ccc(F)c(F)c1Nc1ccc(I)cc1Cl [PD184352]	blocked	–	–	–	–	–	–	–	–	–	–	–	–	–	–	–	–
